Source: paper PMC3978507, “Fusion of a Short HA2-Derived Peptide Sequence to Cell-Penetrating Peptides Improves Cytosolic Uptake, but Enhances Cytotoxic Activity” (Pharmaceuticals, 2009)
Positions of bridges follow the written chain, without caps; N, C: chain ends. Residues, ends and D or L forms follow the SMILES beside them. Chains are numbered I, II in the order given.

Key:
[1] = tested on: HeLa cells; experiment: Resazurin-based cell viability assay; parameters: species or system human; settings: 24 h incubation, up to 100 µM peptide
Protocol: (§1) We used the following cell lines: HEK 293 (human embryonal kidney), HeLa (human cervix carcinoma), MCF-7 (human breast adenocarcinoma), HT-29 (human colon adenocarcinoma), K-562 (human chronic myeloid leukemia) and Jurkat (human T cell leukemia). All cells were cultured in 75 cm^2 culture flasks at 37 °C and 5% CO2 in a humidified atmosphere and split when confluent. For HEK 293 cells Dulbecco’s Modified Eagle Medium/ Ham’s F12 (without L-glutamine) containing 15% heat-inactivated foetal calf serum was used. HeLa and Jurkat cells were grown in supplemented RPMI 1640 (with L-glutamine) with 10% heat-inactivated foetal calf serum, MCF-7 cells in Dulbecco’s Modified Eagle Medium/ Ham’s F12 (without L-glutamine) containing 10% heat-inactivated foetal calf serum and 1% glutamine, and HT-29 and K-562 cells in Dulbecco’s Modified Eagle Medium supplemented with 10% heat-inactivated foetal calf serum. Detachment and dissociation of confluent cells was done by Trp/EDTA (0.05%/0.02% in PBS). For microscopic studies cells were seeded in glass-bottomed 8-well plates, whereas cells for cell viability and flow cytometric studies were cultured in 96-well plates.

[2] = tested on: K562 cells; experiment: Flow cytometric analysis of cell viability (FDA/PI staining); format: cell-based, human; settings: flow cytometry FDA/PI, 24 h, 1-50 µM peptide
Protocol: as §1
(§2) Untreated cells were used as negative control.

[3] = tested on: Jurkat cells; experiment: as above; format: cell-based, human; settings: flow cytometry FDA/PI, 24 h, 1-50 µM peptide
Protocol: as §1, §2

[4] = tested on: MCF-7 cells; experiment: MTT cell viability assay; format: cell-based, human; settings: 24 h, 1-100 µM peptide
Protocol: as §1

[5] = tested on: HT-29 cells; experiment: MTT cell viability assay; format: cell-based, human; settings: 24 h, 1-100 µM peptide
Protocol: as §1

[6] = tested on: HeLa cells; experiment: Flow cytometric studies of peptide uptake; format: cell-based, human; settings: for uptake of chimeric peptide versus parent CPP: CF-labelled, 10 min, several peptide concentrations, flow cytometry
Protocol: Finally, cells were diluted with cold HBSS and inspected.

[7] = tested on: several cell lines (MCF-7, HT-29, HEK293, K562, Jurkat); settings: for cytotoxicity, several cell lines: several cell lines (MCF-7, HT-29, HEK293, K562, Jurkat), concentrations of up to 100 µM
Protocol: The effect of the peptides on the viability of HT-29 and MCF-7 cells was checked by using the MTT-assay. Therefore, cells were cultivated to subconfluency under standard conditions in 96-well plates. The treatment was performed with 1-100 µM of the peptides for 24 h. Then, 10-fold stock solution of MTT reagent (5 mg/mL in medium) was added to each sample, and the cells were incubated for further 2 h. Formazan crystals were solubilised with 200 µL DMSO per well. After incubation for 15 min at 400 rpm and RT, absorbance was measured with a Tecan Saphire plate reader (560 nm, reference filter 630 nm).
The viability after peptide treatment (1-50 µM peptide solutions) for 24 h of the suspension cell lines Jurkat and K562 was tested by using flow cytometry. For this purpose, 2.5 × 10^5 cells per sample were stained with fluorescein diacetate (FDA) (0.04 µg/100 µL cell suspension) and propidium iodide (PI) (25 µg/100 µL cell suspension) in FACS buffer (1% BSA in PBS). Samples were incubated for 15 min at RT in the dark, washed and resuspended in FACS buffer.
Viability of the stained cells was analysed using a FACS®Calibur and CellQuest Pro analysis software (both Becton Dickinson, Franklin Lakes, USA) and is represented as relative cell number of viable cells. Untreated cells were used as negative control. Excitation and emission settings were 488 nm and 525–550 nm for FDA and 488 nm and 564–606 nm for PI staining.

[8] = tested on: K562 erythrocytes; settings: cited from earlier work
Source text: (§3) Therefore, we further elucidated the cytotoxicity profiles of the chimeric peptides for several cell lines (including MCF-7, HeLa and HT-29 cells, as well as suspension cell lines K562 and Jurkat).

[9] = tested on: MDA-MB-231 breast cancer cells; settings: cited from earlier work
Source text: as §3

Row | Compound | IC50 [1] | IC50 [2] | IC50 [3] | IC50 [4] | IC50 [5] | uptake of chimeric peptide versus parent CPP [6] | cytotoxicity, several cell lines [7] | cellular translocation of the peptide alone ([6]; CF-labelled analogue, 60 min, several concentrations, fluorescence microscopy and flow cytometry) | cytotoxic effects, all tested cell lines ([7]; all tested cell lines, data not shown) | haemolytic effect [8] | membrane toxicity [9]
1 | CC(C)C[C@H](NC(=O)CN)C(=O)N[C@@H](CC(C)C)C(=O)N[C@@H](CCC(=O)O)C(=O)N[C@@H](C)C(=O)N[C@@H](CC(C)C)C(=O)N[C@@H](C)C(=O)N[C@@H](CCC(=O)O)C(=O)N[C@@H](CC(C)C)C(=O)N[C@@H](CC(C)C)C(=O)N[C@@H](CCC(=O)O)C(=O)NCC(=O)N[C@@H](CCCNC(=N)N)C(=O)N[C@@H](CCCCN)C(=O)N[C@@H](CCCCN)C(=O)N[C@@H](CCCNC(=N)N)C(=O)N[C@@H](CCCNC(=N)N)C(=O)N[C@@H](CCC(N)=O)C(=O)N[C@@H](CCCNC(=N)N)C(=O)N[C@@H](CCCNC(=N)N)C(=O)N[C@@H](CCCNC(=N)N)C(=O)N1CCC[C@H]1C(=O)N1CCC[C@H]1C(=O)N[C@@H](CCC(N)=O)C(N)=O [N-E5L-Tat(48-60)] (H-GLLEALAELLEGRKKRRQRRRPPQ-NH2) | 29.4 ± 3.9 µM | > 30 µM | 7.9 ± 0.8 µM | 39.3 ± 9.4 µM | 90.9 ± 0.2 µM | higher uptake values |  |  |  |  | 
2 | CC[C@H](C)[C@H](NC(=O)[C@H](C)NC(=O)[C@@H](NC(=O)[C@H](CCC(N)=O)NC(=O)[C@@H]1CCCN1C(=O)[C@H](Cc1ccccc1)NC(=O)[C@@H](NC(=O)[C@H](Cc1c[nH]cn1)NC(=O)[C@H](Cc1ccccc1)NC(=O)[C@H](CCCCNC(=O)[C@H](C)NC(=O)[C@H](Cc1ccccc1)NC(=O)[C@H](CCCCN)NC(=O)[C@H](CCCNC(=N)N)NC(=O)[C@H](CCCCN)NC(=O)[C@H](CCCCN)NC(=O)[C@H](CCCCN)NC(=O)[C@@H]1CCCN1C(=O)[C@H](C)NC(=O)[C@H](CCCCN)NC(=O)[C@H](CCCNC(=N)N)NC(=O)[C@H](CCCCN)NC(=O)[C@@H](N)CCCCN)NC(=O)[C@H](CCC(=O)O)NC(=O)[C@H](CC(C)C)NC(=O)[C@H](CC(C)C)NC(=O)[C@H](CCC(=O)O)NC(=O)[C@H](C)NC(=O)[C@H](CC(C)C)NC(=O)[C@H](C)NC(=O)[C@H](CCC(=O)O)NC(=O)[C@H](CC(C)C)NC(=O)[C@H](CC(C)C)NC(=O)CN)[C@@H](C)O)[C@@H](C)O)C(=O)NCC(=O)N[C@H](C(=O)NCC(=O)N[C@@H](C)C(=O)N1CCC[C@H]1C(N)=O)C(C)C [N-E5L-hCT(18-32)-k7] (I: H-GLLEALAELLEKFHTFPQTAIGVGAP-NH2 / II: H-KKRKAPKKKRKFA; amide I:12-II:C; N-terminus assumed) | 33.1 ± 3.3 µM | > 30 µM | 11.4 ± 4.2 µM | 37.8 ± 6.5 µM | 59.1 ± 0.1 µM | higher uptake values |  |  |  |  | 
3 | CC[C@H](C)[C@H](NC(=O)[C@H](CCCCN)NC(=O)[C@H](CC(N)=O)NC(=O)[C@H](CCCNC(=N)N)NC(=O)[C@H](Cc1ccccc1)NC(=O)[C@H](CCCCN)NC(=O)[C@H](CCCNC(=N)N)NC(=O)[C@H](CC(C)C)NC(=O)[C@H](CCCNC(=N)N)NC(=O)[C@H](CCCCN)NC(=O)[C@H](CCCNC(=N)N)NC(=O)[C@H](CC(C)C)NC(=O)CNC(=O)[C@H](CCC(=O)O)NC(=O)[C@H](CC(C)C)NC(=O)[C@H](CC(C)C)NC(=O)[C@H](CCC(=O)O)NC(=O)[C@H](C)NC(=O)[C@H](CC(C)C)NC(=O)[C@H](C)NC(=O)[C@H](CCC(=O)O)NC(=O)[C@H](CC(C)C)NC(=O)[C@H](CC(C)C)NC(=O)CN)C(=O)N[C@@H](CCCCN)C(=O)N[C@@H](CCC(=O)O)C(=O)N[C@@H](CCCCN)C(N)=O [N-E5L-sC18] (H-GLLEALAELLEGLRKRLRKFRNKIKEK-NH2) | 31.8 ± 1.9 µM | > 30 µM | 7.3 ± 1.7 µM | 30.8 ± 4.1 µM | 72.1 ± 0.1 µM | higher uptake values |  |  |  |  | 
4 | GLLEALAELLE [N-E5L, truncated, modified E5L-peptide; analogue of the HA fusion-peptide from the N-terminal region of the HA2 subunit] |  |  |  |  |  |  | no cytotoxicity was observed | unable to translocate in cells |  |  | 
5 | GLRKRLRKFRNKIKEK [sC18] |  |  |  |  |  |  | no cytotoxicity was observed |  |  |  | 
6 | GRKKRRQRRRPPQ [Tat(48-60)] |  |  |  |  |  |  |  |  | no cytotoxic effects | no haemolytic effect | no membrane toxicity
